{"source": "patent US6331565A", "about": "“Dicaffeoylquinic acid for treating hepatitis B and the diseases associated with retrovirus, and the new caffeoylquinic acid derivatives” (Institute of Radiation Medicine Academy of Military Medical …, priority 1996, dated 2001)", "key": {"HBeAg": {"tested_on": "HBeAg", "assay": "microbe, parasite or virus in culture", "format": "cell-based, HBV", "conditions": "ACV, concentration not given", "experimental": "(§1) The cultures were passenged by trypsinization every 4 days.\n(§2) HBsAg and HBeAg in the culture medium were determined according to the protocol respectively. The culture medium (200 μl) was absorbed on beads containing antibody to HBsAg/HBeAg in the presence of the conjugate. After overnight incubation, the beads were washed 6 times with […] PBS containing 0.05% Tween-80 and incubated with 200 μl of [^125 I] anti-HBs(Hbe) overnight. The beads were washed 6 times as above. The amounts HBsAg/HBeAg as measure of cpm of [^125 I] labeled immunocomplex was counted on γ-counter."}, "HBsAg": {"tested_on": "HBsAg", "assay": "microbe, parasite or virus in culture", "format": "cell-based, HBV", "conditions": "ACV, concentration not given", "experimental": "as §1, §2"}, "DHBV": {"tested_on": "DHBV", "assay": "anti-DHBV test in ducks (serum DHBV DNA dot blot)", "format": "in vivo, DHBV in Peking (Beijing) ducks", "conditions": "for DHBV DNA, grayness of the dot: 50 mg/kg, X ± SD, n = 7", "experimental": "One-day-old ducklings were infected with a 200 μl intravenous injection of DHBV-positive serum containing 10^11 viral genome equivalents per milliliter. Treatment began when ducklings were 7 days old. A total 89 seven-day-old viraemic ducks were distributed at random into five groups. […] Post-treatment follow-up was carried over a period of 5 days. Blood samples were obtained repectively from the leg vein of all ducks and stored at -70° C. after serum separation, prior to treatment, weekly during the treatment, and for 5 days after cessation of treatment. They were screened for presence of DHBV DNA by dot blot hybridization.\nDHBV DNA in serum was analyzed by molecular hybridization using full length DHBV DNA clones in PB325. The DHBV DNA insert was purified by agarose gel electrophoresis after digestion with EcoRI. The DHBV DNA was radiolabeled with α^32 P-dCTP random oligopriming with Klenow fragment. Dot blot hybridization was carried out by the method of Scotto et al. Briefly, an aliquot (200 μl) serum was spotted onto a nylon membrane (Hybond-N, Amersham International, England) in dot blot manifold and denatured with 0.5 M NaOH--NaCl at room temperature for 30 min. Each spotted sample was neutralized in 1M Tris.HCl-1.5M NaCl (pH8.0). The DNA on the membrane was fixed by heating at 80° C. for 2 h, and prehybridization at 37° C. overnight in 50% formamide, 5×Denhardt's, 6×SSC,[…], 0.5% SDS and 10 mg/ml of calf thymus DNA. Hybridization was initiated by adding DHBV [^32 P] DNA probes at 10^6 cpm/ml at the same prehybridization conditions overnight. The membrane was washed in 3×SSC-0.1% SDS at room temperature, 42° C. and 65° C. for 10 min respectively. After hybridization the membranes were air-dried and exposed for periods of up to 14 days at -70° C. with Kodak film with an enhancer screen. The amount of viral DNA were assayed by both densitometry and image analysis of autoradiographic membranes."}, "[1]": {"tested_on": "lymphocyte proliferation induced by Con A", "conditions": "50 mg/kg; for RPI: Normal = 100", "experimental": "mice. Five-wk-old female C57BL/6 mice were used throughout the experiments. All mice were housed in sterile cages in a room supplied with filtrated air. They were given pelleted food and chlorinated water ad libitum.\nInfection with LP-BM5 MuLV. Cell-free supernatants of LP-BM5 MULV were prepared by cocultivating G6 SC-1 clones with normal SC-1 cells for 5 days. Mice were inoculated intraperitoneally with 150 μl of stock solution containing 10^3,4×C plaque-forming units and 10^2,3 Mink-cell focks-forming units per […].\nThen, the spleens were collected. Cell suspensions were prepared by repeated passage of whole spleen through a pipette, the capsule and debris were allowed to settle, and the supernatants containing cells were collected and washed twice in PBS. […] Incubation continued for 16 hr, then cells were collected on filter that was determined by a scintillation counter."}, "HBV DNA polymerase": {"molecular_target": "T1, HBV DNA polymerase (Hepatitis B virus genotype D subtype ayw, UniProt P03156)", "T1 construct": "HBV DNA polymerase in viral particles; host or cells: viral particles", "T1 sequence (P03156 whole entry)": "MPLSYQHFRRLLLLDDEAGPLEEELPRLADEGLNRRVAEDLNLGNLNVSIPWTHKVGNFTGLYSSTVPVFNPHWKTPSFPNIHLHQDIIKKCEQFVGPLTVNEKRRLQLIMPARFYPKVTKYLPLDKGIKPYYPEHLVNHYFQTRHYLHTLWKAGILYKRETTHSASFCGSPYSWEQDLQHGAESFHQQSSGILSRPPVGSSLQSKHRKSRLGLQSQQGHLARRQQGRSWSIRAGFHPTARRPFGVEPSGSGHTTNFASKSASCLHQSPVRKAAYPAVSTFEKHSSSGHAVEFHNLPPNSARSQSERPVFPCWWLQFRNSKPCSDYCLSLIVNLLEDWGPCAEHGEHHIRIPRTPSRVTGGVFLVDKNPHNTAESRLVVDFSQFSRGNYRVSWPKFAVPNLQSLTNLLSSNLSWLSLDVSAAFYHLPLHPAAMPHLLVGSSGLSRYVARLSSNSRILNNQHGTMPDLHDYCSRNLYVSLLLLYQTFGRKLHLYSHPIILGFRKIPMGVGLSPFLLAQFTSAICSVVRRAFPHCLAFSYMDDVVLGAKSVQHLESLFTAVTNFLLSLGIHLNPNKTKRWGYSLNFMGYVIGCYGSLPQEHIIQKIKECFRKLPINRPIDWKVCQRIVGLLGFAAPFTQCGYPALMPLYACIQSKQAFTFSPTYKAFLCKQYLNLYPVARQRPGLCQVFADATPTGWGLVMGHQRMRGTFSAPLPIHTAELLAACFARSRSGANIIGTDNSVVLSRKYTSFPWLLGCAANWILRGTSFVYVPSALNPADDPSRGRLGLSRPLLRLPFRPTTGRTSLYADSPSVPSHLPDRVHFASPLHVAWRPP", "assay": "HBV DNA polymerase assay", "format": "biochemical", "experimental": "Assay was performed as described by Hantz (Antiviral Res 4(1984) 187-199) with minor modification. The Reaction mixture consisted of HBV DNA polymerase in viral particles in 200 mmol.l^-1 of Tris-HCl pH 7.6, 200 mmol.l^-1 of NH4 Cl. 50 mmol.l^-1 of MgCl2, 10 mmol.l^-1 of 2-mercaptoethanol, 2% Nonidet P-40 and 300 μmol.l^-1 concentrations of deoxynucleotide triphosphates except for [^3 H]dTTP, which was included in the assay at 20 μci.ml^-1. […] The mixtures were incubated at 37° C. for 4 h prior to spotting on Whatman No.3 filter paper which was washed 4 times with cold 5% trichloroacitic acid, then with ethanol. The HBV DNA polymerase activity as measure of the incorperation of the radionucleotide into the viral DNA was counted in a Recbeta (LKB)scintilation counter."}}, "note": "Read-outs that look alike come from different tables or passages of the source.", "data": [{"smiles": "Nc1nc2c(ncn2COCCO)c(=O)[nH]1", "note": "[ACV, acyclovir, reference compound]", "values": [{"measurement": "HBeAg Inhibit rate (%)", "setting": "HBeAg; day 4", "value": "26.22 ± 1.17", "unit": "%"}, {"measurement": "HBeAg cpm", "setting": "HBeAg; day 4", "value": "3910.9 ± 57.6", "unit": "cpm"}, {"measurement": "HBeAg Inhibit rate (%)", "setting": "HBeAg; day 8", "value": "26.75 ± 1.21", "unit": "%"}, {"measurement": "HBeAg cpm", "setting": "HBeAg; day 8", "value": "6101.9 ± 96.17", "unit": "cpm"}, {"measurement": "HBeAg Inhibit rate (%)", "setting": "HBeAg; day 12", "value": "3.71 ± 1.36", "unit": "%"}, {"measurement": "HBeAg cpm", "setting": "HBeAg; day 12", "value": "8194.1 ± 111.5", "unit": "cpm"}, {"measurement": "HBsAg Inhibit rate (%)", "setting": "HBsAg; day 4", "value": 48.20, "unit": "%"}, {"measurement": "HBsAg cpm", "setting": "HBsAg; day 4", "value": "710.1 ± 65.7", "unit": "cpm"}, {"measurement": "HBsAg Inhibit rate (%)", "setting": "HBsAg; day 8", "value": "29.54 ± 5.15", "unit": "%"}, {"measurement": "HBsAg cpm", "setting": "HBsAg; day 8", "value": "870.1 ± 51.1", "unit": "cpm"}, {"measurement": "HBsAg Inhibit rate (%)", "setting": "HBsAg; day 12", "value": 23.22, "unit": "%"}, {"measurement": "HBsAg cpm", "setting": "HBsAg; day 12", "value": "622.5 ± 58.8", "unit": "cpm"}, {"measurement": "DHBV DNA, grayness of the dot", "setting": "DHBV; P5 (day 5 after withdrawal)", "value": "9.0 ± 8.6", "unit": "K Grayness"}, {"measurement": "DHBV DNA, grayness of the dot", "setting": "DHBV; day 0 (before treatment), oral", "value": "6.3 ± 4.2", "unit": "K Grayness"}, {"measurement": "DHBV DNA, grayness of the dot", "setting": "DHBV; day 7, oral", "value": "0.1 ± 0.3", "unit": "K Grayness"}, {"measurement": "DHBV DNA, grayness of the dot", "setting": "DHBV; day 14, oral", "value": "0.0 ± 0", "unit": "K Grayness"}, {"measurement": "viraemia returned to a level higher than that of pretreatment by", "setting": "DHBV; day 5 after cessation of treatment", "value": 43, "unit": "%"}, {"measurement": "DHBV DNA from the sera", "setting": "DHBV; during the 14 days of therapy, all 7 treated birds", "value": "substantial decrease of DHBV DNA from the sera"}]}, {"smiles": "Cc1cn([C@H]2C[C@H](N=[N+]=[N-])[C@@H](CO)O2)c(=O)[nH]c1=O", "note": "[AZT]", "values": [{"measurement": "cpm", "setting": "[1]; Con A (5 μg/ml)", "value": "53287 ± 2043", "unit": "cpm"}, {"measurement": "RPI", "setting": "[1]; Con A (5 μg/ml)", "value": 95.10}, {"measurement": "cpm", "setting": "[1]; Con A ([…])", "value": "33212 ± 2609", "unit": "cpm"}, {"measurement": "RPI", "setting": "[1]; Con A ([…])", "value": 93.21}]}, {"smiles": "O=C(O)P(=O)(O)O", "note": "[PFA, reference compound]", "values": [{"measurement": "IC50", "setting": "HBV DNA polymerase", "value": 184, "unit": "µM"}, {"measurement": "inhibitory effect on HBV DNAp", "setting": "HBV DNA polymerase", "value": "dose-dependent inhibitory effect"}, {"measurement": "cpm", "setting": "HBV DNA polymerase; 1 μg/ml", "value": "10267 ± 77", "unit": "cpm"}, {"measurement": "cpm", "setting": "HBV DNA polymerase; 10 μg/ml", "value": "5495 ± 218", "unit": "cpm"}, {"measurement": "cpm", "setting": "HBV DNA polymerase; 100 μg/ml", "value": "3065 ± 67", "unit": "cpm"}, {"measurement": "cpm", "setting": "HBV DNA polymerase; 1000 μg/ml", "value": "2377 ± 329", "unit": "cpm"}, {"measurement": "inhibition at 1 µg/mL", "setting": "HBV DNA polymerase; read-out: Inhibitory rate (%)", "value": "-5.2 ± 15.3", "unit": "%"}, {"measurement": "inhibition at 10 µg/mL", "setting": "HBV DNA polymerase; read-out: Inhibitory rate (%)", "value": "44.4 ± 2.3", "unit": "%"}, {"measurement": "inhibition at 100 µg/mL", "setting": "HBV DNA polymerase; read-out: Inhibitory rate (%)", "value": "69.7 ± 0.7", "unit": "%"}, {"measurement": "inhibition at 1000 µg/mL", "setting": "HBV DNA polymerase; read-out: Inhibitory rate (%)", "value": "76.8 ± 3.4", "unit": "%"}]}]}
